{"source": "patent US7279497B2", "about": "“Benzopyran derivatives substituted with secondary amines including imidazole, their preparation and pharmaceutical compositions containing them” (Korea Research Institute of Chemical Technology, priority 2002, dated 2007)", "key": {"isolated rat hearts": {"system": "isolated rat hearts", "assay": "Cardioprotective activity in isolated ischemic rat heart (Langendorff)", "conditions": "10 μM", "method": "In order to determine whether the compounds of the chemical formula 1 are protective for ischemic hearts in vitro, experiments determining the anti-ischemic effects of the compounds on isolated rat hearts were conducted as follows.\nFor all in vitro studies, isolated rat hearts were used according to the published methods after some modification [HJ Ring, Arzneim.-Forsch./Drug Res. 39 (II), 1535 (1989): T. Krzeminski, et al., J. Pharmacological Methods, 25, 95, (1991)]\nMale Sprague-Dawley rats weighing 300-450 g were anesthetized with sodium pentobarbital (100 mg/kg, i.p.). The tail vein was injected with heparin (1,000 U/kg) and then the trachea was intubated. While rats were mechanically ventilated with a rodent ventilator (Model 7025, Ugobasile, Italy), their hearts were perfused in situ with oxygenated modified Krebs-Henseleit bicarbonate buffer (described herein) by retrograde aortic cannulation. The hearts were then excised and moved to a Langendorff apparatus (H.S.E., Germany), where they were perfused with oxygenated modified Krebs-Henseleit bicarbonate buffer containing (in mM) NaCl 116, NaHCO3 24.9, KCl 4.7, MgSO4 1.1, KH2PO4 1.17, CaCl2 2.52, glucose 8.32 and pyruvate 2.0 at a constant perfusion pressure (85 mm Hg). A latex balloon filled with solvent (ethanol:water=1:1 (v/v)) and attached to a metal cannula was placed in the left ventricle through pulmonary vein and connected to a Isotec pressure transducer (H.S.E., Germany) for measurement of left ventricular pressure (LVP). The hearts were allowed to equilibrate for 15 min, at which time left ventricular end-diastolic pressure (EDP) was adjusted to 5 mm Hg and this balloon volume was maintained throughout the experiment. Then, baseline contractile function, heart rate (HR), and coronary flow (CF) (extracorporeal electromagnetic flow probe, Narco Bio-System, U.S.A.) were measured. Cardiac contractile function was calculated by subtracting LVEDP from LV peak systolic pressure (LVSP), yielding developed pressure (LVDP). Double product (DP), another important parameter for assessing cardiac performance, was calculated by multiplying HR by LVDP. Throughout the experiment, all these parameters were measured, and calculated before and 10 min after pretreatment with each compound and 30 min after the onset of reperfusion with buffer. Data on reperfusion DP were further expressed as the percentage to pretreatment DP.\nAfter stabilization for 15 min, the hearts were pretreated for 10 min with respective drugs (10 μM, 0.04% DMSO) or vehicle (0.04% DMSO) before onset of global ischemia; test agents were administered directly into the oxygenator of the Langendorff apparatus immediately above the aortic root in a retrograde fashion as solutions in the perfusate. We then rendered the hearts globally ischemic by completely shutting off the perfusate for 30 min. Severity of ischemia was determined as the time to contracture (TTC, min) during global ischemia in which the first 5 mmHg increase in EDP was observed. Then, the hearts were reperfused and, 30 min later, contractile function (LVDP, DP) and cumulative reperfusion lactate dehydrogenase (LDH) release were measured. LDH was measured as a sensitive index for loss of cell viability with a kit supplied by Boerhinger Mannheim based on the technique of Wroblewski and LaDue [F. Wroblewski and J S. La Due, Proc Soc Exp Biol Med 90, 210, (1955)]."}, "[1]": {"system": "Chick chorioallantoic membrane (CAM)", "assay": "CAM (chorioallantoic membrane) assay", "assay_type": "in vivo", "method": "Chick chorioallantoic membrane (CAM) assays were performed to measure the inhibitory effects on angiogenesis in vivo of the compounds of the formula 1.\nFertilized chick eggs were incubated under constant humidified (90%) egg breeder at 37° C. On the third day of incubation, about 2 mL of egg albumin was aspirated by an 18-gauge hypodermic needle through the small hole drilled at the narrow end of the eggs, to detach the developing CAM from the shell. And the shell covering the air sac was punched out and removed by forcep, and the shell membrane on the floor of the air sac was peeled away. After more incubation of two more days, sample-loaded thermanox coverslips were air-dried, and applied to the CAM surface to test the angiogenic inhibition by the test compounds. Three days later, 1 to 2 mL of 10% fat emulsion (Intralipose) was injected into the chorioallantoic and observed avascular zone under a dissecting microscope. The negative control was implanted only thermanox coverslip, while the positive control was treated with retinoic acid (1 μg/egg). […] Independent experiment was repeated three times and at least more than 20 eggs in each experiment were used."}}, "note": "Several values for one entry are separate records, joined by “and”; a condition that tells them apart may be missing. Equal entries are not always repeated."}
{"smiles": "COC(OC)[C@@]1(C)Oc2ccc([N+](=O)[O-])cc2[C@@H](N(Cc2ncc[nH]2)c2ccc(Cl)cc2)[C@@H]1O", "note": "[Example 1, (2S,3S,4R)-3,4-dihydro-2-dimethoxymethyl-3-hydroxy-2-methyl-6-nitro-4-[N-(4-chlorophenyl)-N-(1H-imidazol-2-ylmethyl)amino]-2H-1-benzopyran]", "values": [{"measurement": "LDVP × HR (%)", "setting": "isolated rat hearts; 30 min reperfusion, % of pretreatment DP", "result": 55.7, "unit": "%"}, {"measurement": "TTC (time to contracture)", "setting": "isolated rat hearts; global ischemia", "result": "28 min and 28.0 min"}, {"measurement": "EDP", "setting": "isolated rat hearts; reperfusion", "result": 24.0, "unit": "MmHg"}, {"measurement": "LDH (reperfusion release)", "setting": "isolated rat hearts; reperfusion", "result": 10.7, "unit": "U/g"}, {"measurement": "% Inhibition (positive eggs)", "setting": "[1]; 0.5 μM/egg", "result": 62, "unit": "%"}, {"measurement": "% Inhibition (positive eggs)", "setting": "[1]; 1.5 μg/egg", "result": 84, "unit": "%"}]}
